Results reported in US20220151230A1, “SPECIFICALLY SUBSTITUTED 3-(2-HALOGEN-6-ALKYL-4-PROPINYLPHENYL)-3-PYRROLIN-2-ONES AND TO THE USE THEREOF AS HERBICIDES” (Bayer Aktiengesellschaft, priority 2019, published 2022).

Tests used:
DIGSA [1] = experiment: Pre-emergence herbicidal effect against DIGSA; type: in vivo, Digitaria sanguinalis; conditions: 320 g/ha, scored visually after 3 weeks vs untreated controls, 100% = plants have died
Description: (§1) Seeds of monocotyledonous and dicotyledonous weed plants and crop plants are laid out in sandy loam soil in wood-fiber pots and covered with soil. The compounds of the invention, formulated in the form of wettable powders (WP) or as emulsion concentrates (EC), are then applied to the surface of the covering soil as aqueous suspension or emulsion at a water application rate equating to 600 to 800 L/ha with addition of 0.2% wetting agent.
(§2) After the treatment, the pots are placed in a greenhouse and kept under good growth conditions for the trial plants. The damage to the test plants is scored visually after a test period of 3 weeks by comparison with untreated controls (herbicidal activity in percent (%): 100% activity=the plants have died, 0% activity=like control plants).

SETVI [2] = experiment: Post-emergence herbicidal effect against SETVI; type: in vivo, Setaria viridis; conditions: one-leaf stage, 80 g/ha, assessed visually after about 3 weeks vs untreated controls, 100% = plants have died
Procedure: (§3) Seeds of monocotyledonous and dicotyledonous weed and crop plants are laid out in sandy loam soil in wood-fiber pots, covered with soil and cultivated in a greenhouse under good growth conditions. 2 to 3 weeks after sowing, the test plants are treated at the one-leaf stage. The compounds of the invention, formulated in the form of wettable powders (WP) or as emulsion concentrates (EC), are then sprayed onto the green parts of the plants as aqueous suspension or emulsion at a water application rate equating to 600 to 800 l/ha with addition of 0.2% wetting agent. After the test plants have been left to stand in the greenhouse under optimal growth conditions for about 3 weeks, the action of the preparations is assessed visually in comparison to untreated controls (herbicidal action in percent (%): 100% activity=the plants have died, 0% activity=like control plants).

AVEFA [3] = experiment: Pre-emergence herbicidal effect against AVEFA; type: in vivo, Avena fatua; conditions: 320 g/ha, scored visually after 3 weeks vs untreated controls, 100% = plants have died
Description: as §1, §2

ECHCG [4] = experiment: Post-emergence herbicidal effect against ECHCG; type: in vivo, Echinochloa crus-galli; conditions: one-leaf stage, 80 g/ha, assessed visually after about 3 weeks vs untreated controls, 100% = plants have died
Procedure: as §3

AVEFA [5] = experiment: Post-emergence herbicidal effect against AVEFA; type: in vivo, Avena fatua; conditions: one-leaf stage, 80 g/ha, assessed visually after about 3 weeks vs untreated controls, 100% = plants have died
Procedure: as §3

ALOMY [6] = experiment: Pre-emergence herbicidal effect against ALOMY; type: in vivo, Alopecurus myosuroides; conditions: 320 g/ha, scored visually after 3 weeks vs untreated controls, 100% = plants have died
Description: as §1, §2

DIGSA [7] = experiment: Post-emergence herbicidal effect against DIGSA; type: in vivo, Digitaria sanguinalis; conditions: one-leaf stage, 80 g/ha, assessed visually after about 3 weeks vs untreated controls, 100% = plants have died
Procedure: as §3

LOLRI [8] = experiment: Pre-emergence herbicidal effect against LOLRI; type: in vivo, Lolium rigidum; conditions: 320 g/ha, scored visually after 3 weeks vs untreated controls, 100% = plants have died
Description: as §1, §2

SETVI [9] = experiment: Pre-emergence herbicidal effect against SETVI; type: in vivo, Setaria viridis; conditions: 320 g/ha, scored visually after 3 weeks vs untreated controls, 100% = plants have died
Description: as §1, §2

VIOTR = experiment: Pre-emergence herbicidal effect against VIOTR; type: in vivo, Viola tricolor; conditions: 320 g/ha, scored visually after 3 weeks vs untreated controls, 100% = plants have died
Description: as §1, §2

ALOMY [10] = experiment: Post-emergence herbicidal effect against ALOMY; type: in vivo, Alopecurus myosuroides; conditions: one-leaf stage, 80 g/ha, assessed visually after about 3 weeks vs untreated controls, 100% = plants have died
Procedure: as §3

LOLRI [11] = experiment: Post-emergence herbicidal effect against LOLRI; type: in vivo, Lolium rigidum; conditions: one-leaf stage, 80 g/ha, assessed visually after about 3 weeks vs untreated controls, 100% = plants have died
Procedure: as §3

ECHCG [12] = experiment: Pre-emergence herbicidal effect against ECHCG; type: in vivo, Echinochloa crus-galli; conditions: 320 g/ha, scored visually after 3 weeks vs untreated controls, 100% = plants have died
Description: as §1, §2

HORMU = experiment: Post-emergence herbicidal effect against HORMU; type: in vivo, Hordeum murinum; conditions: one-leaf stage, 80 g/ha, assessed visually after about 3 weeks vs untreated controls, 100% = plants have died
Procedure: as §3

| Structure (SMILES) | Pre-emergence action [%] against DIGSA (DIGSA [1]) | Post-emergence action [%] against SETVI (SETVI [2]) | Pre-emergence action [%] against AVEFA (AVEFA [3]) | Post-emergence action [%] against ECHCG (ECHCG [4]) | Post-emergence action [%] against AVEFA (AVEFA [5]) | Pre-emergence action [%] against ALOMY (ALOMY [6]) | Post-emergence action [%] against DIGSA (DIGSA [7]) | Pre-emergence action [%] against LOLRI (LOLRI [8]) | Pre-emergence action [%] against SETVI (SETVI [9]) | Pre-emergence action [%] against VIOTR (VIOTR) | Post-emergence action [%] against ALOMY (ALOMY [10]) | Post-emergence action [%] against LOLRI (LOLRI [11]) | Pre-emergence action [%] against ECHCG (ECHCG [12]) | Post-emergence action [%] against HORMU (HORMU) |
| --- | --- | --- | --- | --- | --- | --- | --- | --- | --- | --- | --- | --- | --- | --- |
| CC#Cc1cc(C)c(C2=C(O)C3(CCC(OCCOC)CC3)NC2=O)c(Cl)c1 (centres unmarked) [Example E16] | 100% | 100% | 100% | 100% | 100% | 100% | 100% | 100% | 100% | 100% | 100% | 100% | 100% |  |
| CC#Cc1cc(C)c(C2=C(O)C3(CCC(OC)CC3)NC2=O)c(Br)c1 (centres unmarked) [Example E21] | 100% | 100% | 100% | 100% | 90% | 100% | 100% | 100% | 100% | 100% | 100% | 100% | 100% |  |
| CC#Cc1cc(C)c(C2=C(OC(=O)OCC)C3(CCC(CC)CC3)NC2=O)c(Cl)c1 (centres unmarked) [Example P3] |  | 100% |  | 100% |  |  | 100% |  |  |  | 100% | 100% |  | 100% |
| CC#Cc1cc(C)c(C2=C(OC(=O)OCC)C3(CCC(OC)CC3)NC2=O)c(Br)c1 (centres unmarked) [Example P13] | 100% | 100% | 100% | 100% | 100% | 100% | 100% | 100% | 100% | 100% | 100% | 100% | 100% |  |
| CC#Cc1cc(C)c(C2=C(OC(=O)OCC)C3(CCC(OCCOC)CC3)NC2=O)c(Cl)c1 (centres unmarked) [Example P17] | 100% | 100% | 100% | 100% | 100% | 100% | 100% | 100% | 100% | 100% | 100% | 100% | 100% |  |
| CC#Cc1cc(Cl)c(C2=C(OC(=O)OCC)C3(CCC(OC)CC3)NC2=O)c(CC)c1 (centres unmarked) [Example P21] | 100% | 100% | 100% | 100% | 80% | 100% | 100% | 100% | 100% | 90% | 90% | 80% | 100% |  |
